# Source: patent publication US20220339134A1, “VERY-LONG-CHAIN POLYUNSATURATED FATTY ACIDS, ELOVANOID HYDROXYLATED DERIVATIVES, AND METHODS OF USE” (Board of Supervisors of Louisiana State University and …, priority 2019, published 2022)
# Assays:
# hypothalamic neurons = assay: Fluoro-Jade B staining of organotypic hypothalamus slices; format: cell-based, db/db mice; conditions: 500 nM, 48 h incubation; db/db hypothalamus slices
# Method: Fluoro-Jade b (F-Jb) stains degenerating neurons. […] 48 h incubation with 500 nM ELV34 elicited neuroprotection that was reflected in the decrease of F-Jb signal (a).
# db/db mice hypothalamus = assay: IL6 (marker of SASP) induced by IL1β in diabetic mouse hypothalamus; format: cell-based
# From the text: Different effects have been observed in female and male mice.
# [1] = methyl ester or sodium salt; administered 1 hour following 2 hours of ischemia; cited from earlier work
# [2] = test system: human diabetic and non-diabetic adipocytes; assay: TP53 and IL8 expression (Taqman Real time PCR) in human adipocytes treated with IL1β; format: cell-based
# Method: A) experimental design. B) expression levels of TP53 and IL8 in human diabetic and non-diabetic adipocytes by the means of Taqman Real time PCR.
# IL1β is a cytokine that induce insulin resistance in adipocytes 18 • Similarly, IL8 was elevated by IL1β and brought down around 40 folds by 500 nM ELV34 in both diabetic and non-diabetic adipocytes. Even though the mechanisms are unknown ELV34 can be a therapeutic agent to stop or halt damaging signaling observed in diabetic patients.
# [3] = test system: hypothalamus, SAT and VAT; assay: Adiponectin levels in diabetic hypothalamus and adipose tissue; parameters: species or system db/db mice
# primary human RPE cells = assay: Primary human RPE cells treated with 10 μM OAβ +/- ELVs (SA-β-Gal staining, qPCR); format: cell-based; conditions: 3 days qPCR, 7 days staining
# Method: (A) In vitro experimental design: Primary human RPE cells were treated with 10 μM OAβ+/−ELVs. After 3 days, RNA was isolated and qPCR analyzed. After 7 days, cells were subjected to β-Galactosidase staining. (B) Live cell images under bright field microscopy after 7 days. (C) β-Gal staining+/−ELVs. Quantitation of % for the β-Gal positive cells. ELVs decreased positive senescent cells. (D) Gene transcription of senescence, AMD-related and autophagy genes after OAβ (1-42) exposure+/−ELVs. (*P <0.05, student t-test).
# OAβ toxicity is counteracted by ELVs in primary hRPE. (A) Primary hRPE cells were treated with 10 μM OAβ with or without adding ELVs. After 3 days, the total RNA was isolated and q-PCR analyzed. After 7 days, cells were subjected to β-Galactosidase staining. (B) Live cell images of primary hRPE under bright field microscope imaging after 7 days. (C) β-Galactosidase staining of primary hRPE, +/−ELVs. Quantitation of % for the β-Gal positive cells. ELVs decreased positive senescent cells. […]
# Cells were visualized using SA-β-Gal staining kit (Cat 9860, Cell Signaling Technology, MA, USA). […] Pictures were taken under brightfield microscope (Nikon Eclipse TS100) 200× magnification after the development of blue color, and cells counted in 10 different random fields per well. […]
compound,measurement,setting,value
CC/C=C\C[C@H](O)\C=C/C=C/C=C/[C@H](O)C/C=C\C/C=C\CCCCCCCCCCCCCCC(=O)O [ELV-N-34],F-Jb signal (degenerating neurons),hypothalamic neurons,decrease
same,levels of IL6 (marker of SASP),db/db mice hypothalamus,reduced
same,cell survival,[1],promoted cell survival
same,infarct volumes,[1],reduced infarct volumes
same,neurovascular unit disruption,[1],diminished neurovascular unit disruption
same,IL8 brought down,"[2]; 500 nM, IL1β-elevated, diabetic and non-diabetic adipocytes",around 40 folds
same,levels of TP53 mRNA,[2]; adipocytes from diabetic patient treated with IL1β,down to non-diabetic control levels
same,effect of IL1β (TP53 and IL8 expression),[2]; human diabetic adipocytes,revert the effect of IL1β
same,adiponectin in subcutaneous (SAT) and visceral adipose tissue (VAT),[3],Differential effect
same,levels of Adiponectin,[3]; ELV34 treatment,increased
same,adiponectin in diabetic hypothalamus,[3]; female and males,trend of increase
same,"OAβ effects: RPE cell morphology, SASP (SA-β-Gal), senescence, AMD, MMP and autophagy gene expression",primary human RPE cells,reverted these effects
